Data as given in patent US20200017490A1, “Novel Mesoionic Insecticidal Compound” (Nippon Kayaku Kabushiki Kaisha, priority 2016, published 2020).

Assays:
Assay in all cases: whole plant or invertebrate
Type in all cases: in vivo
[1] = test system: Brown Planthopper (Nilaparvata lugens); conditions: foliar, 120 h, rice seedling foliage dipping, third instar larvae, 5 days after the treatment, 25° C.
Protocol: Biological Test Example 3: Test (Foliage Dipping) for Controlling Brown Planthopper (Nilaparvata lugens)
Ten sampled rice seedlings were dipped in the chemical solution of the test compounds diluted with water to 200 ppm in an amount of 20 mL and air-dried. After air-drying, the rice seedlings held with urethane in a glass cylinder having an inner diameter of 4.5 cm and a length of 14 cm were set up in a plastic cup containing 40 mL of water. Larvae of brown planthoppers in the third instar larva were released in the glass cylinder. The cylinder was covered with a lid of medicine paper and kept in a chamber at a constant temperature of 25° C. for rearing.

[2] = test system: Cotton Aphid (Aphis gossypii); conditions: 120 h, foliar spraying on cucumber leaf, cotton aphid offspring, 5 days after the treatment, 25° C.
Protocol: Biological Test Example 1: Test (Foliar Spraying) for Controlling Cotton Aphid (Aphis gossypii)
A cucumber leaf cut to a diameter of 3.5 cm was placed on cotton wool moistened with water. Two adult cotton aphids were released there for offspring for 24 hours and the adult insects were then removed. The diluent of the test compounds diluted with water to 200 ppm in an amount of 2 mL was sprayed onto the cucumber leaves with a spray tower. After air-drying, the sample with cotton wool was placed in a plastic cup, which was covered with a lid and kept in a chamber at a constant temperature of 25° C. for rearing.

[3] = test system: Southern Yellow thrips (Thrips palmi); conditions: 72 h, foliar spraying on cucumber leaf, first instar larvae, 3 days after the treatment, 25° C.
Protocol: Biological Test Example 5: Test (Foliar Spraying) for Controlling Southern Yellow thrips (Thrips palmi)
A cucumber leaf cut to a diameter of 1.5 cm was placed on cotton wool moistened with water. The diluent of the test compounds diluted with water to 200 ppm in an amount of 2 mL was sprayed onto the cucumber leaves with a spray tower. After air-drying, 5 larvae of southern yellow thrips in the first instar larva were released there and placed with cotton wool in a plastic cup, which was covered with a lid and kept in a chamber at a constant temperature of 25° C. for rearing.

[4] = test system: Diamondback Moth (Plutella xylostella); conditions: foliar, 120 h, cabbage leaf dipping, third instar larvae, 5 days after the treatment, 25° C.
Protocol: Biological Test Example 2: Test (Foliage Dipping) for Controlling Diamondback Moth (Plutella xylostella)
A cabbage leaf cut to a diameter of 5.0 cm was dipped in the diluent of the test compounds diluted with water to 200 ppm in an amount of 20 mL and air-dried. After air-drying, the cabbage leaf was placed in a plastic cup, and 10 larvae of diamondback moths in the third instar larva were released there. The cup was covered with a lid and kept in a chamber at a constant temperature of 25° C. for rearing.

[5] = test system: Brown Planthopper (Nilaparvata lugens); conditions: rice seedling root dipping, third instar larvae released after 2 days, 5 days after the treatment, 25° C.
Protocol: Biological Test Example 4: Test (Root Dipping) for Controlling Brown Planthopper (Nilaparvata lugens)
Ten sampled rice seedlings held with urethane in a glass cylinder having an inner diameter of 4.5 cm and a length of 14 cm were set up in a plastic cup containing 40 mL of chemical solution diluted with water to 0.8 ppm. After 2 days, 10 larvae of brown planthoppers in the third instar larva were released in the glass cylinder. The glass cylinder was covered with a lid of medicine paper and kept in a chamber at a constant temperature of 25° C. for rearing.

Row | SMILES | mortality at 200 ppm [1] [%] | further results
1 | COc1cccc(-c2c(O)[n+](CCC=N[N+](C)(C)C)c3ccccn3c2=O)c1 [Compound K-1] | ≥ 80 | 
2 | O=c1c(-c2cccc(C(F)(F)F)c2)c([O-])[n+](CCC=NOc2ccc(Cl)nc2)c2ccccn12 [Compound K-2] |  | mortality at 200 ppm [2]: ≥ 80%; mortality at 200 ppm [3]: ≥ 80%; mortality at 200 ppm [4]: ≥ 80%; mortality at 0.8 ppm [5]: ≥ 80%
3 | CC(C)(C)[S+]([O-])N=CCC[n+]1c([O-])c(-c2cccc(C(F)(F)F)c2)c(=O)n2ccccc21 (stereo not shown) [Compound K-3] | ≥ 80 | 
4 | CC(C)=CCON=CCC[n+]1c([O-])c(CC=C(C)C)c(=O)n2ccccc21 [Compound K-7] | ≥ 80 | 
5 | CCOC(C)ON=CCC[n+]1c([O-])c(CC=C(C)C)c(=O)n2ccccc21 (stereo not shown) [Compound K-8] | ≥ 80 | 
6 | C=CCc1c([O-])[n+](CCC=NOC(C)OCC)c2ccccn2c1=O (stereo not shown) [Compound K-9] | ≥ 80 | 
7 | O=c1c(-c2ccccc2)c([O-])[n+](CCC=NOC2COCCO2)c2ccccn12 (stereo not shown) [Compound K-10] | ≥ 80 | 
